In brackets after ≈: the same amount, converted by molar mass. Some results are limits rather than exact numbers.

Drawing on US10077289B2, “Cyclosporins modified on the MeBmt sidechain by heterocyclic rings” (priority 2015, dated 2018), this text covers Ki, IC50 and solubility for 5 molecules.

Data set [1] has as its target Human recombinant cyclophilin A (Cyp A) (Homo sapiens (Human), UniProt P62937). As to the kind of experiment: Protease-free PPIase assay. The procedure: Protease-Free PPIase Assay
The protease-free PPIase assay measures the rate of cis to trans conversion of a peptide substrate catalyzed by the enzyme cyclophilin A. Addition of a cyclophilin A inhibitor (e.g., a test compound) slows the catalyzed rate and a Ki value is obtained.
35 mM HEPES pH 7.8, filtered through a 0.2 μm filter. 50 μM DTT was added prior to use each day and then the buffer was stored on ice.
Human recombinant cyclophilin A (Cyp A) (Sigma C3805) enzyme was diluted to 1 μM with enzyme dilution buffer (20 mM HEPES pH 7.8, 40% glycerol, 50 μM DTT and 1 μM BSA) and stored at −20° C.
Succinimide-Ala-Ala-Pro-Phe-p-nitroanilide (SUC-AAPF-pNA) (from Bachem AG, L-1400), 20 mg/ml prepared in 0.5 M LiCl in trifluoroethanol.
The temperature is monitored by the use of a temperature probe. To prevent UV degradation of test compounds, the light below 290 nm was blocked using a glass slide in the light path. 1.5 ml of the assay buffer was put into a 3 ml quartz cuvette and cooled to 10.0±0.1° C. while stirring (vigorous but not so fast as to produce cavitation). The inhibitor was diluted in 100% DMSO, and then added to the assay to a maximum final concentration of 0.5% DMSO in the assay. A blank spectrum was obtained, then 3 μL of enzyme was added (2 nM final concentration) and then 3 μL substrate (60 μM final concentration) added. The absorbance was measured at 330 nm for 300 s or 500 s for blank runs (NOTE: the substrate must be added in one quick injection and the measurements started immediately to minimize mixing errors).
A first order rate equation was fitted to the absorbance data, for each concentration of inhibitor, to obtain the rate constant (the first 10 to 15 seconds were excluded as mixing causes errors in this portion of curve). The catalytic rate was calculated from the enzymatic rate constant minus the background rate constant. An exponential curve was generated using the catalytic rate constants versus the inhibitor concentration to obtain the Ki value for the inhibitor. The Ki value is indicative of the binding affinity between the test compound and cyclophilin A.

Data set [2] deals with calcineurin/cyclophilin A (Homo sapiens (Human), UniProt P62937+P63098+Q08209). As to the kind of experiment: Calcineurin Phosphatase (CaN) Assay (+CypA). The settings on record: in the presence of Cyp A, 1:1 complex with inhibitor; read-out: Calcineurin Phosphatase (CaN) Assay (+CypA) IC50. It is filed as biochemical. The text has this:
Calcineurin Phosphatase (CaN) Assay
The calcineurin phosphatase assay is a means for estimating the immunosuppressive potential of a test compound. Calcineurin is a serine-threonine protein phosphatase that on activation dephosphorylates members of the nuclear factor of activated T cells (NFAT), which are important in T lymphocyte activation.
To investigate the immunosuppressive potential of exemplary compounds of Formula I, which are cyclosporin analogs, their ability to inhibit calcineurin activity was measured in the presence and absence of Cyp A.
The CaN assay kit used is based on a colorimetric assay for measuring calcineurin phosphatase activity, and it is commercially available (Enzo Life Sciences and Calbiochem). Calmodulin is also required for calcineurin activity and RII phosphopeptide is used as an efficient peptide substrate for calcineurin. […] The detection of free phosphate released is based on the classic Malachite green assay.
Enzo Life Sciences CaN Assay Kit: BML-AK804
Malachite Green: BIOMOL Green™ reagent
Calmodulin (Human, recombinant): was thawed on ice, diluted 1:50 with 2× assay buffer, and then stored on ice.
Calcineurin: was thawed quickly, stored on ice immediately, diluted 1:12.5 with 1× assay buffer, and then stored on ice.
R-II Substrate: 915 μL ultrapure water (UPW) was added to the 1.5 mg vial substrate to give a final concentration of 0.75 mM.
Inhibitors: 2.5 mM inhibitor in 100% DMSO.
Cyp A: recombinant human CypA (Sigma C3805), 1 mg/ml; Recombinant 6-His tagged CypA prepared by the University of Edinburgh was also used.
Inhibitor dilutions: inhibitor compounds were diluted in UPW in polypropylene low-binding 96 well plates at 5× the final assay concentration.
Assay Setup: using the half area 96 well plates supplied with the kit, 10 μl UPW was added to duplicate wells to provide the non-inhibited control. 10 μl of the inhibitor or the inhibitor/Cyp A complex was added to the appropriate sample wells. 25 μl of the 2× assay buffer with CaM was added to all wells, then 5 μl of CaN was added to all wells (40 U per well final concentration) except duplicate ‘no calcineurin blank’ wells to which 5 μL 1× assay buffer was added. The assay plate was placed in an oven at 30° C. for 15 minutes to equilibrate to the reaction temperature. The reaction was started by the addition of 10 μl RII-peptide (0.15 mM final concentration). The reaction was allowed to proceed at 30° C. for a time period in which the reaction is linear for about 60 minutes. The reaction was then terminated by adding 100 μl of the Malachite Green reagent. The color was allowed to develop for 15-30 minutes at room temperature before the absorbance at 620 nm was measured using a plate reader (Molecular Devices—SpectraMax M5). The data were analyzed by subtracting ‘no Calcineurin blank’ from all the absorbance readings and plotting the background corrected absorbances against Log10 inhibitor concentration. A sigmoidal-dose response curve was fitted to the data using GraphPad Prism Software.
It exerts its immunosuppressive activity by binding to cyclophilin A to form a complex, which then binds to calcineurin and thereby inhibits calcineurin activity.

Data set [3] can be described thus: Water Solubility Assay (measured in pH 7.8 buffer). In kind it is physicochemical. The settings on record: 25 °C, pH 7.8, aqueous buffer, kinetic from dmso stock. The procedure:
Water Solubility Assay (Measured in pH 7.8 Buffer)
The aqueous solubility of a compound of Formula I in buffer (pH 7.8) was measured by recording the onset of precipitation of the compound as a function of increasing concentration. The onset of precipitation, if it occurred, was detected by an increase in absorbance at 650 nm.
Assay Buffer: 35 mM HEPES pH 7.8
Stock solutions of Control and Test Compounds: 10 mM in 100% DMSO.
10 mM stock solutions of control and test compounds were prepared in 100% DMSO.
Assay buffer (247.5 μl) was placed into flat bottomed transparent 96-well plate. For blank samples DMSO (2.5 μl) was added. For test and control samples 2.5 μl of the appropriate DMSO dilution stocks were added to the appropriate well. All test and control compounds were performed in triplicate.
The plates were sealed with adhesive plate seal and shaken at 250 rpm at 25° C. for 18 h on a plate shaker. After incubation the plate seals were taken off and any bubbles observed in wells removed. The plates were read on a SpectraMaxM5 with a 5 s pre-shake at 650 nm. Data files were transferred to the appropriate worksheet and the solubility range of the compounds was calculated from the data. The values shown in the Tables indicate the concentration in μM (micromolar) at which the compound remains in solution.

For `CC[C@H]1NC(=O)[C@@H]([C@H](O)[C@H](C)Cc2nccn2C)N(C)C(=O)[C@@H](C(C)C)N(C)C(=O)[C@@H](CC(C)C)N(C)C(=O)[C@@H](CC(C)C)N(C)C(=O)[C@H](C)NC(=O)[C@@H](C)NC(=O)[C@@H](CC(C)C)N(C)C(=O)[C@@H](C(C)C)NC(=O)[C@H](CC(C)C)N(C)C(=O)[C@@H](C)N(C)C1=O` [Compound 1, [(2S,3R,4R)-3-Hydroxy-4-methyl-2-(methylamino)-5-(1-methyl-1H-imidazol-2-yl)-pentanoic acid]^1 [(R)-methyl-Sar]^3 cyclosporin A], the Ki (commonly the equilibrium dissociation constant of an inhibitor or competing ligand from its target) in data set [1] was 0.015 µM. Moreover, in data set [2], the IC50 – broadly, the concentration that gives 50% inhibition – is 2.7 µM. Moreover, in data set [3], the solubility – broadly, how much of the substance goes into solution per volume – at 18 h fell in the range of 75 to 100 µM (≈ 94.3 to 126 µg/mL).

As to `CC[C@H]1NC(=O)[C@@H]([C@H](O)[C@H](C)Cc2nccn2CCCO)N(C)C(=O)[C@@H](C(C)C)N(C)C(=O)[C@@H](CC(C)C)N(C)C(=O)[C@@H](CC(C)C)N(C)C(=O)[C@H](C)NC(=O)[C@@H](C)NC(=O)[C@@H](CC(C)C)N(C)C(=O)[C@@H](C(C)C)NC(=O)[C@H](CC(C)C)N(C)C(=O)[C@@H](C)N(C)C1=O` [Compound 6, [(2S,3R,4R)-3-Hydroxy-5-(1-(3-hydroxypropyl)-1H-imidazol-2-yl)-4-methyl-2-(methylamino)pentanoic acid]^1 [(R)-methyl-Sar]^3 cyclosporin A], the Ki in data set [1] was 0.0051 µM. The IC50 in data set [2] is 4.75 µM. Also, the solubility at 18 h in data set [3] is above 100 µM.

On to `CC[C@H]1NC(=O)[C@@H]([C@H](O)[C@H](C)CCCc2ncccn2)N(C)C(=O)[C@@H](C(C)C)N(C)C(=O)[C@@H](CC(C)C)N(C)C(=O)[C@@H](CC(C)C)N(C)C(=O)[C@H](C)NC(=O)[C@@H](C)NC(=O)[C@@H](CC(C)C)N(C)C(=O)[C@@H](C(C)C)NC(=O)[C@H](CC(C)C)N(C)C(=O)[C@@H](C)N(C)C1=O` [Compound 22, [(2S,3R,4R)-3-Hydroxy-4-methyl-2-(methylamino)-7-(pyrimidin-2-yl)-heptanoic acid]^1 [(R)-methyl-Sar]^3 cyclosporin A], for which the Ki in data set [1] worked out at 0.0032 µM. In addition, the IC50 in data set [2] stood at 1.16 µM. Further, the solubility at 18 h in data set [3] is above 100 µM.

In the case of `CC[C@H]1NC(=O)[C@@H]([C@H](O)[C@H](C)CCCc2cccnc2)N(C)C(=O)[C@@H](C(C)C)N(C)C(=O)[C@@H](CC(C)C)N(C)C(=O)[C@@H](CC(C)C)N(C)C(=O)[C@H](C)NC(=O)[C@@H](C)NC(=O)[C@@H](CC(C)C)N(C)C(=O)[C@@H](C(C)C)NC(=O)[C@H](CC(C)C)N(C)C(=O)CN(C)C1=O` [Compound 31, [(2S,3R,4R)-3-Hydroxy-4-methyl-2-(methylamino)-7-(pyridin-3-yl)-heptanoic acid]^1 cyclosporin A], the Ki in data set [1] was 0.0095 µM. The IC50 in data set [2] is 3.95 µM. In data set [3], this molecule displayed a solubility at 18 h of 50 to 75 µM (≈ 63.4 to 95.1 µg/mL).

As for `CC[C@H]1NC(=O)[C@@H]([C@H](O)[C@H](C)CCCCc2ccccn2)N(C)C(=O)[C@@H](C(C)C)N(C)C(=O)[C@@H](CC(C)C)N(C)C(=O)[C@@H](CC(C)C)N(C)C(=O)[C@H](C)NC(=O)[C@@H](C)NC(=O)[C@@H](CC(C)C)N(C)C(=O)[C@@H](C(C)C)NC(=O)[C@H](CC(C)C)N(C)C(=O)[C@@H](C)N(C)C1=O` [Compound 28, [(2S,3R,4R)-3-Hydroxy-4-methyl-2-(methylamino)-8-(pyridin-2-yl)-octanoic acid]^1 [(R)-methyl-Sar]^3 cyclosporin A], the Ki in data set [1] was found to be 0.0039 µM. Also, the IC50 in data set [2] was above 10 µM. The solubility at 18 h in data set [3] lay in the range of 50 to 75 µM (≈ 64.8 to 97.2 µg/mL).
